In PMC9863691, “A Novel Ferroptosis Inhibitor UAMC-3203, a Potential Treatment for Corneal Epithelial Wound” (Pharmaceutics, 2022):
In brackets after ≈: the same amount, converted by molar mass.

How the values were obtained:
HCE cells = assay: in vitro cytotoxicity, MTT assay; assay type: cell-based, human; details: 3 h exposure
Experimental: The cytotoxicity of UAMC-3203 was assessed by MTT assay. The HCE cells were seeded on a 96-well plate at a density of 100,000 cells/well in 200 µL of supplemented growth medium. The next day the cells were washed with PBS (pH 7.2). The cells were then exposed to UAMC-3203 at concentrations 10 nM, 1 µM, 10 µM, and 50 µM for 3 h. For control, cells not exposed to UAMC-3203 cultured in a serum-free medium were used. The cells were then washed twice with PBS and incubated 2 h with 100 µL of 10% of thiazolyl blue tetrazolium bromide (MTT, Sigma-Aldrich, St. Louis, MO, USA) in a serum-free medium. An amount of 100 µL of 20% (w/v) sodium dodecyl sulfate (SDS), N-dimethylformamide (DMF) lysis buffer was added to each well and incubated overnight. The following day, cell viability was evaluated by measuring absorbance at 570 nm with a Victor^2 multilabel plate reader (PerkinElmer, Wallac, St. Paul, MN, USA). The cell viability % was calculated as below:(2) % of cell viability=Abs exposed cells−Abs blank/Abs non−exposed cells−Abs blank×100 where Abs exposed cells = absorbance of cells exposed to UAMC-3203; Abs blank = absorbance of well plates without cells; and Abs non–exposed cells = Absorbance of cells exposed to serum-free medium (i.e., control).

[1] = human microsome; cited from earlier work
solubility in buffers = assay type: physicochemical; details: for water solubility: room temperature, 72 h
Experimental: Compound UAMC-3203 was synthetized in the laboratory of Medicinal Chemistry at the University of Antwerp, as reported by Devisscher L. et al.. Solubility of UAMC-3203 was determined in 0.1 M citrate buffer (pH 5 and pH 6) and phosphate-buffered saline (PBS, Gibco, Life Technologies Limited, Paisley, UK) at pH 7.4. Excess of UAMC-3203 (10–20 mg) was added to 500 µL of buffer in glass vials that were kept at room temperature and mixed (150 rpm) for 72 h. The pH of the solutions was measured daily with calibrated pH meter (Orion Research Incorporated, Boston, MA, USA) and adjusted if needed (with 0.1 N sodium hydroxide or 0.1 N hydrochloric acid). After 72 h, samples were withdrawn and centrifuged at 13,000 rpm for 15 min. The supernatant was collected and analyzed by high-pressure liquid chromatography (HPLC) for UAMC-3203 concentration.
The quantitation of UAMC-3203 was performed with […] reverse-phase HPLC system consisting of a degasser (G1379B), multi-sampler (G1367D), a binary pump (G1312B), a thermostat (G1316B), and a diode array detector (DAD) detector (G1315C). A Zorbax Eclipse XDB-C18 (4.6 × 50 mm, 4 μm; Agilent Technologies, Santa Clara, CA, USA) column was used for the analyses. The mobile phase was composed of 0.1% […] (Sigma-Aldrich, St. Louis, MO, USA) in Milli-Q-H2O and 0.1% […] in acetonitrile (LC-MS Chromasolv, Honeywell, Riedel-de Haen, Seelze, Germany) (65:35% v/v). Isocratic analysis was performed at a flow rate of 1 mL/min. The injection volume was 5 μL, and the detection wavelength was 240 nm.

[2] = drug distribution in porcine cornea ex vivo; assay type: in vitro ADME
Experimental: Fresh porcine (a crossbreed between Matias and Yorkside) eyes were collected in the laboratory animal center at the University of Eastern Finland. The eyes were stored overnight in a keratinocyte serum-free medium (Gibco, Life Technologies Corporation, Grand Island, NY, USA) at +4 °C. The cornea was excised using an incision along the limbus, as described earlier.
The isolated corneas were rinsed with PBS and mounted in vertical Franz diffusion cells (PermeGear, Inc., Hellertown, PA, USA). Small magnetic stir bars were added to each receiver chamber, and 5 mL of 35 °C BSS Plus supplemented with 10 mM of 4-(2-hydroxyethyl)-1-piperazineethanesulfonic acid (HEPES; Lonza Bioscience, Walkersville, MD, USA) was added to the receiver compartment of each Frantz cell. The experiment was initiated by adding 50 µM UAMC-3203 in 10 mM HEPES-BSS Plus solution to the donor compartment. Samples of 500 µL from donor compartments and corneas were collected at the end of the experiments (at 5, 30, 60, and 120 min). The cornea samples were rinsed with PBS, the epithelial layer was scraped off from the corneas, and the remaining stroma–endothelium samples were cut to pieces. The experiments were carried out in triplicates. The samples were stored at −80 °C until liquid chromatography–tandem mass spectrometry (LC-MS/MS) analyses were performed.
The values of apparent partition coefficients (Kp) were calculated using drug concentrations on the tissue samples (at 120 min) and in the donor compartment buffer at time zero (ng/mL).
Quantitative analysis of UAMC-3203 was performed with the LC-MS/MS system that consisted of an Agilent 1290 series liquid chromatograph connected to an Agilent 6495 triple-quadruple mass spectrometer (Agilent Technologies, Inc., USA). The mobile phase consisted of 0.1% formic acid (Fisher chemical, Geel, Belgium), 1 mM ammonium formate (Honeywell, Fluka, Seelze, Germany) in Milli-Q-H2O (eluent A), and acetonitrile (LC-MS Chromasolv, Honeywell, Riedel-de Haen, Seelze, Germany) (eluent B). Gradient elution was used: 0.0 to 3.0 min: 25%→95% B, 3.0 to 3.5 min: 95% B, 3.5 to 3.6 min: 95%→25% B, 3.6 to 5.0 min 25% B. Solvent flow was 0.3 mL/min, and Poroshell 120 SB-C18 column (2.1 mm × 50 mm, 2.7 µm, Agilent Technologies, Inc., USA) was maintained at 60 °C. The injection volume was 2 µL. Nitrogen was used as a drying, nebulizer, and collision gas. The following conditions were used in the electrospray ion source: positive ion mode, sheath gas flow rate 11 L/min at 350 °C, drying gas flow rate 16 L/min at 200 °C, nebulizer gas pressure adjusted to 25 psi, capillary voltage 3500 V (ESI+), fragmentor voltage 380 V, dwell time 150 ms and cell accelerator voltage 5 V. The data were analyzed with Agilent Mass Hunter Quantitative Analyzed software (vB.09.00, build 9.0.647.0, Agilent Technologies, CA, USA). The precursor and fragment ions are presented in Supplementary Table S1.

## O=S(=O)(NCCN1CCNCC1)c1ccc(NC2CCCCC2)c(NCc2ccccc2)c1 [UAMC-3203]
HCE cells; 10 nM
  toxicity to HCE cells: did not cause any toxicity
HCE cells; 1 µM
  toxicity to HCE cells: did not cause any toxicity
HCE cells; 10 µM
  HCE cell viability: 75 ± 6.7%
HCE cells; 50 µM
  HCE cell viability: 39.2 ± 5.6%
[1]
  t1/2 in human microsome: 20 h
Solubility in buffers
  solubility at pH 6.0 and 7.4 relative to pH 5.0: about 3.5 times
Solubility in buffers; pH 5.0, 0.1 M citrate buffer
  water solubility: 36.7 ± 5.7 µM (≈ 17.3 µg/mL)
Solubility in buffers; pH 6.0, 0.1 M citrate buffer
  water solubility: 127.9 ± 16.1 µM (≈ 60.3 µg/mL)
Solubility in buffers; pH 7.4, PBS
  water solubility: 127.3 ± 17.3 µM (≈ 60 µg/mL)
[2]
  Kp epithelium/donor relative to Kp stroma/epithelium: ≈ 52 times
[2]; 50 µM donor
  levels in epithelium higher than in stroma–endothelium: 1–2 orders of magnitude
[2]; 50 µM donor, 5 min
  level in the cornea at 5 min: ≈ 20 µM
[2]; 50 µM donor, 120 min
  Kp epithelium/donor: 1.95 ± 0.45
  Kp stroma/epithelium: 0.04 ± 0.02
[2]; 120 min
  epithelium concentration relative to stroma at 120 min: ≈ 28 times
[2]; over the time points
  concentration in corneal epithelium relative to corneal stroma: 12–38 fold
